Key:
[1] = target: T1, hTRPA1 (Homo sapiens, UniProt O75762); experiment: intracellular calcium fluorescence assay (Calcium […] dye, FlexStation […]); type: cell-based
T1 construct: gene TRPA1

[2] = target: T2, hTRPV1 (Homo sapiens, UniProt Q8NER1); experiment: as above; type: cell-based
T2 construct: gene TRPV1
T2 sequence (Q8NER1 whole entry): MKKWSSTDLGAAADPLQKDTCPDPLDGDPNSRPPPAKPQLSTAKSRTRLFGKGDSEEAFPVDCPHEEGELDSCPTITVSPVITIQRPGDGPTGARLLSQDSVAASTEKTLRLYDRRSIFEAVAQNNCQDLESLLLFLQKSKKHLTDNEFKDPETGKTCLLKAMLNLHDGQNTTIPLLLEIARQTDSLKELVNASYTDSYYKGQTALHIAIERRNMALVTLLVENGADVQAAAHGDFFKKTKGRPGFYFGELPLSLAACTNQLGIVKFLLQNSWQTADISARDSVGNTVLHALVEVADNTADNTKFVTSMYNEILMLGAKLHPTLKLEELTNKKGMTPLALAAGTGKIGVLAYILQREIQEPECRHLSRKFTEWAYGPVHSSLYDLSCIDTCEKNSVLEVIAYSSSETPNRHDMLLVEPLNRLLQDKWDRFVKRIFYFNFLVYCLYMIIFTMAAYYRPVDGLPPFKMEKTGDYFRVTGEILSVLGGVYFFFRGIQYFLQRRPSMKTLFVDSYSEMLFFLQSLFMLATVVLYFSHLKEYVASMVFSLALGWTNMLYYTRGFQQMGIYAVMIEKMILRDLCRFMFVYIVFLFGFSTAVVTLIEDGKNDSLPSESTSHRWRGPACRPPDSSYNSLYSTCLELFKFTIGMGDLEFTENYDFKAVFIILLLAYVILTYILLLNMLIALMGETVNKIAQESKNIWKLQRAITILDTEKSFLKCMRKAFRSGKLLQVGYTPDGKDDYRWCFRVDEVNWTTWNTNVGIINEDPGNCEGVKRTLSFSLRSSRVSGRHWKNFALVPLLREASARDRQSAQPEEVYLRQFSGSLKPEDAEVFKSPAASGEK

T1 sequence (O75762 whole entry): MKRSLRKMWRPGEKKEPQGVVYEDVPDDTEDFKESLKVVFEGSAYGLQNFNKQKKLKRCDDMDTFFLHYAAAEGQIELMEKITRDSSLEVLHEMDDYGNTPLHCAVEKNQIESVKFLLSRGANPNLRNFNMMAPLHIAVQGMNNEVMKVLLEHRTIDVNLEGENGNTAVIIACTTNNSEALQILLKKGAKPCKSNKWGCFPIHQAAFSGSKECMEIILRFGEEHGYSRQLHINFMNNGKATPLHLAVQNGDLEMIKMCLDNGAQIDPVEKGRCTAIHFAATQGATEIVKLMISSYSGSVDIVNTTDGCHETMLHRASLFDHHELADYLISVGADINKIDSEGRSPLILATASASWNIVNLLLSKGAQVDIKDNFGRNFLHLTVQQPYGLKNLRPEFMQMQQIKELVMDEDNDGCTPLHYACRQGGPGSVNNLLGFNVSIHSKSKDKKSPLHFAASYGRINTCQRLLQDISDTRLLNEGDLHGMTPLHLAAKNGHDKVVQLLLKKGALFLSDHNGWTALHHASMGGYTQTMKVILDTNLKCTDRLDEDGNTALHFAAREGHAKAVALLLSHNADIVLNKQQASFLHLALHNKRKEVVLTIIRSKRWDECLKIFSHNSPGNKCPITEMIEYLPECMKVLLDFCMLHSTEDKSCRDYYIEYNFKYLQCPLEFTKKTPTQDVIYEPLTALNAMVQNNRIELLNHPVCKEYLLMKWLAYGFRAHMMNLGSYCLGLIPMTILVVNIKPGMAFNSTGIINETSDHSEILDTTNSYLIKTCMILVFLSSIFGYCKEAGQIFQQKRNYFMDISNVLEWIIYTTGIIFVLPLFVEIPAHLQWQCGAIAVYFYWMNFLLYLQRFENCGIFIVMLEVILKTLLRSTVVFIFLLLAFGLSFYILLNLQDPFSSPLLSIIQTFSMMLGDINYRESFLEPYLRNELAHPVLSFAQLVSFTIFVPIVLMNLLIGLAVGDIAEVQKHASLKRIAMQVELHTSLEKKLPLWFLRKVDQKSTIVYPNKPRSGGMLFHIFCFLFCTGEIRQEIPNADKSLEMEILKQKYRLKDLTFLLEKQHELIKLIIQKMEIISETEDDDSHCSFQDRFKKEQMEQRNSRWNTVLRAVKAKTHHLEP

Compound | EC50 [1] [µM] | EC50 [2] [µM]
CCCCC/C=C\C/C=C\C/C=C\C/C=C\CCCC(=O)OC(CO)CO [2-arachidonoylglycerol] | 10 | –
CCCCCc1cc(O)c2c(c1)OC(C)(C)[C@@H]1CCC(C)=C[C@@H]21 [Δ9-tetrahydrocannabinol] | 9 | –
CCCCC/C=C\C/C=C\C/C=C\C/C=C\CCCC(=O)NCCO [anandamide] | – | 4.3
O=CC=Cc1ccccc1 [cinnamaldehyde] | 12 | –

From paper PMC7759271 (Cannabis and Cannabinoid Research, 2020)
